The source made the active and inactive calls. No cut-off for these calls is given here.
Key:
[1] = target: T1, von Hippel-Lindau disease tumor suppressor/Casein kinase I isoform epsilon (Homo sapiens) (UniProt P49674+P40337); assay: PROTAC activity at VHL/CK1 epsilon in HEK293 cells assessed as induction of degradation of CK1 epsilon at upto 20 uM pretreated with LGK974 followed by compound addition and measured after 6 hrs by Western blot analysis; assay type: cell-based
[2] = target: von Hippel-Lindau disease tumor suppressor/Casein kinase I isoform alpha (Homo sapiens) (UniProt P48729+P40337); assay: PROTAC activity at VHL/CK1 alpha in HEK293 cells assessed as induction of degradation of CK1 alpha by measuring maximum efficacy at 5 to 10 uM measured after 6 hrs by Western blot analysis relative to control; assay type: cell-based; details: dose 5-10 µM
[3] = target: von Hippel-Lindau disease tumor suppressor/Casein kinase I isoform delta (Homo sapiens, UniProt P48730+P40337); assay: PROTAC activity at VHL/Hibit-fused CK1 delta in human MV4-11 cells assessed as degradation of CK1 delta at 5 to 10 uM incubated for 6 hrs by Western blot analysis; assay type: cell-based; details: dose 5-10 µM
[4] = target: T1, von Hippel-Lindau disease tumor suppressor/Casein kinase I isoform epsilon (Homo sapiens); assay: PROTAC activity at VHL/CK1 epsilon in human U87 cells assessed as induction of degradation of CK1 epsilon at 1 uM measured after 6 hrs; assay type: cell-based
HEK293 = assay: Effect on DVL3 phosphorylation in human HEK293 cells at 1 uM measured after 6 hrs by Western blot analysis; assay type: functional, cell-based

T1 sequence (P40337 whole entry, looked up, canonical isoform): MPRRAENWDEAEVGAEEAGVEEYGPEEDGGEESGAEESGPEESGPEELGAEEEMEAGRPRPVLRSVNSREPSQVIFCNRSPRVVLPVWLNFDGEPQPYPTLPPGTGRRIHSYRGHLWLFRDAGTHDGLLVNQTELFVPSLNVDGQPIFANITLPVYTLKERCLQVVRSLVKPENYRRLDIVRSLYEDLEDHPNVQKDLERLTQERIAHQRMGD
T1 sequence (P49674 whole entry, looked up, canonical isoform): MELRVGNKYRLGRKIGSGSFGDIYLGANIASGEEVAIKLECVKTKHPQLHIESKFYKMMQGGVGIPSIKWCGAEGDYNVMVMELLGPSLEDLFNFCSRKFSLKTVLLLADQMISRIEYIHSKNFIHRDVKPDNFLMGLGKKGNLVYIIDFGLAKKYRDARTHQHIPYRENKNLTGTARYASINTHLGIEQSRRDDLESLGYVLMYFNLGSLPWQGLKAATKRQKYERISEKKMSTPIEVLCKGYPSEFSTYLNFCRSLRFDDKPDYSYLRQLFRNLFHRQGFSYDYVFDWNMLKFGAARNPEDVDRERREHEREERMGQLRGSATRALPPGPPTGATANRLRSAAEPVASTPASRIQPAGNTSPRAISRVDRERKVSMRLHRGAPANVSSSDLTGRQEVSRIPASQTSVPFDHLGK
Chain of von Hippel-Lindau disease tumor suppressor/Casein kinase I isoform delta (P40337 whole entry, looked up, the tested form may be a part, canonical isoform): as the sequence (P40337 whole entry, looked up, canonical isoform) above
Chain of von Hippel-Lindau disease tumor suppressor/Casein kinase I isoform delta (P48730 whole entry, looked up, the tested form may be a part, canonical isoform): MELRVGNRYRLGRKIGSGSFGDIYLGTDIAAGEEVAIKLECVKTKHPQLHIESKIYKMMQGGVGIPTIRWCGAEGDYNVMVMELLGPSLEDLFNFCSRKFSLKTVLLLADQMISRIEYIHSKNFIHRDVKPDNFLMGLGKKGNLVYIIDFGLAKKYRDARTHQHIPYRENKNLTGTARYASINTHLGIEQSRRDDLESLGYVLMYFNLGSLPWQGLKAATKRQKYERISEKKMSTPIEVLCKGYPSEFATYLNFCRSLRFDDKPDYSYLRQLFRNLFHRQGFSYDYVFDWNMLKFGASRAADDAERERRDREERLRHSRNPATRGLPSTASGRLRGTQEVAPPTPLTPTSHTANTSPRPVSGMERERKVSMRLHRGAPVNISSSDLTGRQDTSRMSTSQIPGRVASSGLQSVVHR
Chain of von Hippel-Lindau disease tumor suppressor/Casein kinase I isoform alpha (Homo sapiens) (P40337 whole entry, looked up, the tested form may be a part, canonical isoform): as the sequence (P40337 whole entry, looked up, canonical isoform) above
Chain of von Hippel-Lindau disease tumor suppressor/Casein kinase I isoform alpha (Homo sapiens) (P48729 whole entry, looked up, the tested form may be a part, canonical isoform): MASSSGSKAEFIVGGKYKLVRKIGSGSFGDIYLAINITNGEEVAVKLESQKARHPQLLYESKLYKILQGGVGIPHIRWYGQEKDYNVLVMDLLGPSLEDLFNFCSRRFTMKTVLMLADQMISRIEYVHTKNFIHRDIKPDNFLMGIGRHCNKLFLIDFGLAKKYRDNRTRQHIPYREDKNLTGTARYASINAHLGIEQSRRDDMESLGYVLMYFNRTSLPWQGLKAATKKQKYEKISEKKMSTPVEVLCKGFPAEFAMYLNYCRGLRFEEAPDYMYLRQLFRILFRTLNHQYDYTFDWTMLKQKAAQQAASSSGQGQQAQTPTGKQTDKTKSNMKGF

Cc1ncsc1-c1ccc(CNC(=O)[C@H]2C[C@H](O)CN2C(=O)[C@H](NC(=O)CCCCCCC(=O)N2CCC(F)(Cn3cnc(-c4ccc(F)cn4)c3-c3ccnc4[nH]ccc34)CC2)C(C)(C)C)cc1
Activity [1]: Active | Emax [2]: > 50% | Activity [3]: Active | Activity [4]: Active | Activity (HEK293): Active

Source: ChEMBL document CHEMBL6087472, “Development and Discovery of a Selective Degrader of Casein Kinases 1 δ/ε” (J Med Chem, 2025)
